Experimental data: patent EP0617968B1, “HIV protease inhibitors in pharmaceutical combinations for the treatment of AIDS” (Merck & Co., Inc., priority 1993, dated 1994)

Target: T1, HIV protease (Human immunodeficiency virus type 1 group M subtype B, UniProt P04585)
T1 construct: made in house; host or cells: Escherichia coli
Assay: biochemical
Conditions: protease expressed in Eschericia coli; peptide substrate 0.5 mg/mL; 50 mM Na acetate, pH 5.5, 30°C, 1 hour
Method: Assay for Inhibition of Microbial Expressed HIV Protease
Inhibition studies of the reaction of the protease expressed in Eschericia coli with a peptide substrate [Val-Ser-Gln-Asn-(betanapthyl)Ala-Pro-Ile-Val, 0.5 mg/mL at the time the reaction is initiated] were in 50 mM Na acetate, pH 5.5, at 30°C for 1 hour. Various concentrations of inhibitor in 1.0 ul DMSO were added to 25 ul of the peptide solution in water. The reaction is initiated by the addition of 15 ul of 0.33 nM protease (0.11 ng) in a solution of 0.133 M Na acetate pH 5.5 and 0.1% bovine serum albumin. The reaction was quenched with 160 ul of 5% phosphoric acid. Products of the reaction were separated by HPLC (VYDAC wide pore 5 cm C-18 reverse phase, acetonitrile gradient, 0.1 % phosphoric acid). The extent of inhibition of the reaction was determined from the peak heights of the products.

## CC(C)(C)NC(=O)[C@@H]1C[C@@H]2CCCC[C@@H]2CN1C[C@@H](O)C[C@@H](Cc1ccccc1)C(=O)N[C@H]1c2ccccc2C[C@H]1O [A, N-(2(R)-hydroxy-1(S)-indanyl)-2(R)-phenylmethyl-4(S)-hydroxy-5-(2-(3(S)-N'-(t-butylcarbamoyl)-(4aS,8aS)-decahydroisoquinoline)yl)-pentaneamide]
  IC50: 0.3 to 6 nM

## CC(C)(C)NC(=O)[C@@H]1CN(C(=O)OCc2ccccc2)CCN1C[C@@H](O)C[C@@H](Cc1ccccc1)C(=O)N[C@H]1c2ccccc2C[C@H]1O [B, N-(2(R)-hydroxy-1(S)-indanyl)-2(R)-phenylmethyl-4(S)-hydroxy-5-(1-(4-carbobenzyloxy-2(S)-N'-(t-butylcarbamoyl)-piperazinyl))-pentaneamide]
  IC50: 0.3 to 6 nM
